The target in the assay is T1, ARSeNL (mScarlet-ε-NanoLuc); ε subunit of the ATP synthase from Bacillus subtilis (Bacillus subtilis, UniProt P37812).
T1 construct: gene atpC; isolated ε subunit (from ATeam1.03) flanked by N-terminal mScarlet and C-terminal NanoLuc as reporters
The assay can be described thus: BRET ratio (mScarlet/NanoLuc) dose-response, microplate reader, Hill fit. The assay is classed as binding. The note with it: read-out: KD (apparent).

T1 sequence (P37812 whole entry): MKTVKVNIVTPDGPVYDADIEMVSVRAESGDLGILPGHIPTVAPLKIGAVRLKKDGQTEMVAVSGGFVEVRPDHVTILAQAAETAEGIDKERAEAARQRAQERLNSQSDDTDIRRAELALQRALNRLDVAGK

Consider `Nc1ncnc2c1ncn2[C@@H]1O[C@H](COP(=O)(O)OP(=O)(O)OP(=O)(O)O)[C@@H](O)[C@H]1O` [ATP], for which the Kd turned out to be 1100 ± 100 µM.

The record behind these values is article PMC6721044, “Ratiometric BRET Measurements of ATP with a Genetically-Encoded Luminescent Sensor” (Sensors (Basel, Switzerland), 2019).
